Reference: patent US20060079453A1, “Hla binding peptides and their uses” (priority 2002, published 2006)
No end group written: not given here.

Tests used:
Experiment in all cases: biochemical
Assay type in all cases: binding
[1] = target: HLA-DR DRB1*0101 (DR1) (Homo sapiens, UniProt P01903+P01911, A100R/D57E/F55L/F60I/F76Y/I96L/L162R/M171V/P40L/Q125E/R42F/V115G/Y59C); settings: DRB1 *0101
[2] = target: HLA-DR DRB1*0301 (DR3) (Homo sapiens, UniProt P01903+P01911, A100K/A102G/A103R/A169T/F55Y/I96L/K41T/L162R/M171V/P40S/Q125H/Q178H/Q39Y/R42S/S66N/T106N/T262R/W38E/Y61H)
[3] = target: HLA-DR DRB1*0701 (DR7) (Homo sapiens, UniProt P01903+P01911, A100R/A102G/A103Q/D57E/D86V/E43K/F76Y/K127E/L162R/M171V/P40G/Q125H/Q99D/R33Q/R42Y/R54Q/S133A/S66F/T210M/V115G/Y107V/Y59L/Y89S); settings: DRB1 *0701
[4] = target: HLA-DR DRB1*0802 (DR8) (Homo sapiens, UniProt P01903+P01911, A100R/A103L/A169T/F76Y/H45Y/I96F/K41T/L162R/M171V/P40S/Q125H/Q178H/Q39Y/Q99D/R218S/R42G/S66Y/V115G/W38E)
[5] = target: HLA-DR DRB1*0901 (DR9) (Homo sapiens, UniProt P01903+P01911, A100R/A103E/D57H/D86V/F55Y/F60I/F76Y/I96F/K127E/L162R/M171V/P40D/Q125H/Q99R/R33Q/R42F/S133A/S66N/T210M/V115G/W38K/Y107V/Y59G/Y89S); settings: DRB1 *0901
[6] = target: HLA-DR DRB1*1101 (DR11) (Homo sapiens, UniProt P01903+P01911, A100R/A169T/A87E/I96F/K41T/L162R/M171V/P40S/Q125H/Q178H/Q39Y/Q99D/R42S/S66Y/T262R/V115G/W38E); settings: DRB1 *1101
[7] = target: HLA-DR DRB1*1302 (DR13) (Homo sapiens, UniProt P01903+P01911, A100E/A169T/K41T/L162R/M171V/P40S/Q125H/Q178H/Q39Y/Q99D/R42S/S66N/T262R/V115G/W38E/Y61H); settings: DRBI *1302
[8] = target: HLA-DR DRB1*1501 (DR15) (Homo sapiens, UniProt P01903+P01911); settings: DRBI *1501
[9] = target: HLA-DR DRB3*0101 (DR52) (Homo sapiens, UniProt P01903+P79483)
[10] = target: HLA-DR DRB4*0101 (DR53) (Homo sapiens, UniProt P01903+P13762, G164S); settings: DRB4 *0101
[11] = target: HLA-DR DRB1*0401 (DR4) (Homo sapiens, UniProt P01903+P01911, A100K/A169T/F76Y/I96L/K127E/L162R/M171V/N62H/P40V/Q125Y/R42H/S133A/S149N/S66Y/V115G/V209L/W38E); settings: DRB1 *0401
[12] = target: HLA-DR DRB5*0101 (DR51) (Homo sapiens, UniProt P01903+Q30154); settings: DRB5 *0101

Sequence of HLA-DR DRB1*0301 (DR3) (P01903 26-254 limits assumed, other chains not shown): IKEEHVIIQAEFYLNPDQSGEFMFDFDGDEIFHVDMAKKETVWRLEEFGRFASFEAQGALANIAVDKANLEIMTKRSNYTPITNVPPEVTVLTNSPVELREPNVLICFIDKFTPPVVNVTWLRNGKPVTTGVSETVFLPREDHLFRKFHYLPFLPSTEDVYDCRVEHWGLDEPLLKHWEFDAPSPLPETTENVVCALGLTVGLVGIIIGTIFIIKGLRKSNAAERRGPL
Sequence of HLA-DR DRB1*1101 (DR11) (P01903 26-254 limits assumed, other chains not shown): as above
Sequence of HLA-DR DRB1*1302 (DR13) (P01903 26-254 limits assumed, other chains not shown): as above

Row | Compound | IC50 [1] [nM] | IC50 [2] [nM] | IC50 [3] [µM] | IC50 [4] [µM] | IC50 [5] [µM] | IC50 [6] [µM] | IC50 [7] [nM] | IC50 [8] [nM] | IC50 [9] [nM] | IC50 [10] [nM] | IC50 [11] [nM] | IC50 [12] [µM]
1 | CC(C)C[C@H](NC(=O)[C@H](CCC(N)=O)NC(=O)[C@H](CC(=O)O)NC(=O)[C@H](CCC(=O)O)NC(=O)[C@H](CO)NC(=O)[C@H](CC(C)C)NC(=O)[C@@H]1CCCN1C(=O)[C@@H](NC(=O)[C@@H](N)[C@@H](C)O)C(C)C)C(=O)N[C@@H](CC(C)C)C(=O)N[C@@H](Cc1ccc(O)cc1)C(=O)N[C@@H](CC(C)C)C(=O)N1CCC[C@H]1C(=O)N[C@@H](Cc1ccccc1)C(=O)N[C@@H](CCCNC(=N)N)C(=O)O | 4010 | 332 | 11.3 | 42.2 | 37.4 | 26.5 | 5300 | > 2370 | 4320 | 872 | – | –
2 | CSCC[C@H](NC(=O)[C@H](CC(C)C)NC(=O)[C@H](CCC(N)=O)NC(=O)[C@H](CC(=O)O)NC(=O)[C@H](CC(N)=O)NC(=O)[C@H](CCSC)NC(=O)[C@H](CCSC)NC(=O)[C@H](CCCNC(=N)N)NC(=O)[C@H](CC(C)C)NC(=O)[C@@H](N)C(C)C)C(=O)N[C@@H](Cc1ccccc1)C(=O)N[C@@H](CC(C)C)C(=O)N[C@@H](CCC(=O)O)C(=O)N[C@@H](CCCNC(=N)N)C(=O)N[C@@H](C)C(=O)O | – | 183 | – | 1.7 | 10.7 | 2.35 | 130 | 127 | 98 | 88 | 29 | 0.085
3 | CC(C)C[C@H](NC(=O)CNC(=O)[C@H](Cc1ccccc1)NC(=O)[C@H](CCC(=O)O)NC(=O)[C@H](CCCCN)NC(=O)[C@@H](N)Cc1c[nH]c2ccccc12)C(=O)N[C@@H](CC(=O)O)C(=O)N[C@@H](CO)C(=O)N[C@H](C(=O)N[C@@H](CCC(=O)O)C(=O)N[C@@H](CC(C)C)C(=O)N[C@@H](C)C(=O)N[C@@H](Cc1c[nH]cn1)C(=O)N[C@@H](Cc1ccc(O)cc1)C(=O)N[C@@H](CC(=O)O)C(=O)O)C(C)C | 1140 | 85 | – | 20 | 7.05 | 4.93 | 8410 | 22800 | 829 | 5920 | 96 | 89.4
4 | CC[C@H](C)[C@H](NC(=O)[C@@H]1CCCN1C(=O)[C@H](CC(N)=O)NC(=O)[C@@H](N)Cc1c[nH]c2ccccc12)C(=O)N[C@@H](CC(C)C)C(=O)N[C@@H](CC(C)C)C(=O)N[C@@H](Cc1c[nH]c2ccccc12)C(=O)N[C@@H](CCC(N)=O)C(=O)N1CCC[C@H]1C(=O)N[C@H](C(=O)N1CCC[C@H]1C(=O)N[C@H](C(=O)N[C@@H](Cc1c[nH]cn1)C(=O)N[C@H](C(=O)N[C@H](C(=O)O)C(C)C)[C@@H](C)O)C(C)C)[C@@H](C)CC | 208 | > 81800 | – | 115 | 0.607 | 19.6 | 2260 | 14 | > 8830 | 81 | 695 | ≥ 100
5 | LTELYFEKGEYFVEM | – | 592 | – | 18.8 | 26.9 | > 18.9 | 3160 | > 2370 | 124 | 601 | 8050 | 6.66
6 | TTLLRALGAQKEAIS | 19 | 107000 | 4.28 | 0.652 | 4.61 | 0.86 | 1510 | 89 | 33300 | – | 339 | 0.021
